# Patent US8283353B2, “Fused ring compound and use thereof” (Takeda Pharmaceutical Company Limited, priority 2009, dated 2012)
# What was measured:
# human AT1 receptor = target: T1, human AT1 receptor (Homo sapiens, UniProt P30556); experiment: AT1 receptor antagonistic activity: [125I]-angiotensin II binding assay on human AT1 receptor-expressing CHO-K1 cellular membrane fraction; details: 22.5 pM [125I]-angiotensin II, 1 hr room temperature
# T1 construct: expressed in transfected cells; membrane fraction
# T1 sequence (P30556 1-359): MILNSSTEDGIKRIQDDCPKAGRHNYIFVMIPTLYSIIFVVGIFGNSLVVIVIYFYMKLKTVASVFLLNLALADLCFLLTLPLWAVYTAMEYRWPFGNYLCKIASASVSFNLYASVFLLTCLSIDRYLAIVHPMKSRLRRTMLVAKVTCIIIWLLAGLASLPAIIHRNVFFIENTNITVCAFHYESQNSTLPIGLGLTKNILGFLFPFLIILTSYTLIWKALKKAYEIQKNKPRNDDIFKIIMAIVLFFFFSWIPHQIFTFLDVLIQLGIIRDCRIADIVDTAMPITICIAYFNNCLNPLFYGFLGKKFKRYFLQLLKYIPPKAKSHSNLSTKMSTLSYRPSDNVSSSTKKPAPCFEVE
# Outline: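 Competition binding used radiolabelled angiotensin II on stably transfected CHO-K1 membrane fractions in Tris pH 7.4/MgCl2 buffer, optionally containing 0.3 mg/mL fatty acid-free BSA, 1 hr at room temperature. Filtration onto GF/C separated bound tracer, and nonspecific binding was measured with candesartan.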
# human PPARγ = target: T2, human PPARγ (Homo sapiens, UniProt P37231); experiment: PPARγ agonistic activity: luciferase reporter assay in PPARγ:RXRα:4ERPP/CHO-K1 cells; format: cell-based; details: CHO-K1, test compound 10^−6 M; luciferase activity of control compound X (1 μM) = 100%, non-administration group = 0%
# T2 construct: expressed in transfected cells
# T2 sequence (P37231 1-477 isoform P37231-2): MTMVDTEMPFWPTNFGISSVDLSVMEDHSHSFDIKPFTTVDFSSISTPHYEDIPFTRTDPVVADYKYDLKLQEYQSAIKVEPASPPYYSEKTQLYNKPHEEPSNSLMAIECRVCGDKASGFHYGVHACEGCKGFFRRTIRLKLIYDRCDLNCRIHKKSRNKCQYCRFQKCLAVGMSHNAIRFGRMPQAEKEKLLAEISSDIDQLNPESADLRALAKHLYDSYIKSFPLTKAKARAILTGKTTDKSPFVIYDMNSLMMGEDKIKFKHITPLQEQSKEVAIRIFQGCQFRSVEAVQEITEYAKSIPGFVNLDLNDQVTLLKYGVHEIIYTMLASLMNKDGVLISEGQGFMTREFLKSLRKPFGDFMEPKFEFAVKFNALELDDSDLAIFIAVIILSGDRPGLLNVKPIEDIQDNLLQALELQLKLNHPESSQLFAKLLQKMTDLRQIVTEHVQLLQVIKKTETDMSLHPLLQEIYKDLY
# T2 sequence (P19793 1-462 partner): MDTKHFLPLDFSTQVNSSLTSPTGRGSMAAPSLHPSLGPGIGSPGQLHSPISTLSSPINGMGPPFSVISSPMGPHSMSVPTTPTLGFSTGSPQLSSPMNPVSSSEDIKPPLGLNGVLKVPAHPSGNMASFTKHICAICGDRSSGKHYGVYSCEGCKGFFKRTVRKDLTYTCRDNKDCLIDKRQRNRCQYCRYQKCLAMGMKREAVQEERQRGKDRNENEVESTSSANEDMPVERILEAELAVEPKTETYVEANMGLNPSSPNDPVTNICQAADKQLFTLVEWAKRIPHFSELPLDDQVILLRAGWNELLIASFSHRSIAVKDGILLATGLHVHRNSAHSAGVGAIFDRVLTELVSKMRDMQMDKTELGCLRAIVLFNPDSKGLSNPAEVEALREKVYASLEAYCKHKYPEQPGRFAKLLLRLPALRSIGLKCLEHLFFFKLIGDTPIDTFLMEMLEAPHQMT
# Outline: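 Activity is expressed relative to untreated cells (0%) and 1 μM reference compound X (100%), from luciferase luminescence. Reporter line: PPARγ:RXRα:4ERPP/CHO-K1, exposed to compound for one day at 37 °C in F12 medium containing 0.1% fatty-acid-free BSA.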
SMILES,IC50 (human AT1 receptor) [nM],activation at 1 µM (human PPARγ) [%]
"CCCc1c(Cc2ccc(-c3ccccc3-c3noc(=O)[nH]3)cc2F)c(=O)n([C@H]2CC[C@H](OCC3(O)CCC3)CC2)c2ncnn12 [Example 252, 6-{[3-fluoro-2′-(5-oxo-4,5-dihydro-1,2,4-oxadiazol-3-yl)biphenyl-4-yl]methyl}-4-{trans-4-[(1-hydroxycyclobutyl)methoxy]cyclohexyl}-7-propyl[1,2,4]triazolo[1,5-a]pyrimidin-5(4H)-one]",2.4,40
"CCCc1c(Cc2ccc(-c3ccccc3-c3noc(=O)[nH]3)cc2)c(=O)n([C@H]2C[C@H](OCC(O)(CC)CC)C2)c2ncnn12 [Example 259, 4-[trans-3-(2-ethyl-2-hydroxybutoxy)cyclobutyl]-6-{[2′-(5-oxo-4,5-dihydro-1,2,4-oxadiazol-3-yl)biphenyl-4-yl]methyl}-7-propyl[1,2,4]triazolo[1,5-a]pyrimidin-5(4H)-one]",2.3,28
"CCCc1c(Cc2ccc(-c3ccccc3-c3noc(=O)[nH]3)cc2)c(=O)n(C2CCOCC2)c2ccnn12 [Example 269, 6-{[2′-(5-oxo-4,5-dihydro-1,2,4-oxadiazol-3-yl)biphenyl-4-yl]methyl}-7-propyl-4-(tetrahydro-2H-pyran-4-yl)pyrazolo[1,5-a]pyrimidin-5(4H)-one]",2.2,16
"CCCc1c(Cc2ccc(-c3ccccc3-c3noc(=O)[nH]3)cc2)c(=O)n([C@H]2CC[C@H](Oc3ccc(OC)cc3)CC2)c2ncnn12 [Example 271, 4-[trans-4-(4-methoxyphenoxy)cyclohexyl]-6-{[2′-(5-oxo-4,5-dihydro-1,2,4-oxadiazol-3-yl)biphenyl-4-yl]methyl}-7-propyl[1,2,4]triazolo[1,5-a]pyrimidin-5(4H)-one]",2.4,43
"CCCc1c(Cc2ccc(-c3ccccc3-c3noc(=O)[nH]3)cc2)c(=O)n([C@H]2CC[C@@H](Oc3ccc(OC)cc3)CC2)c2ncnn12 [Example 272, 4-[cis-4-(4-methoxyphenoxy)cyclohexyl]-6-{[2′-(5-oxo-4,5-dihydro-1,2,4-oxadiazol-3-yl)biphenyl-4-yl]methyl}-7-propyl[1,2,4]triazolo[1,5-a]pyrimidin-5(4H)-one]",2.8,28
"CCCc1c(Cc2ccc(-c3ccccc3-c3noc(=O)[nH]3)cc2)c(=O)n([C@H]2CC[C@H](Oc3ccc(O)cc3)CC2)c2ncnn12 [Example 273, 4-[trans-4-(4-hydroxyphenoxy)cyclohexyl]-6-{[2′-(5-oxo-4,5-dihydro-1,2,4-oxadiazol-3-yl)biphenyl-4-yl]methyl}-7-propyl[1,2,4]triazolo[1,5-a]pyrimidin-5(4H)-one]",1.7,48
"CCCc1c(Cc2ccc(-c3ccccc3-c3noc(=O)[nH]3)cc2)c(=O)n([C@H]2CC[C@@H](Oc3ccc(O)cc3)CC2)c2ncnn12 [Example 274, 4-[cis-4-(4-hydroxyphenoxy)cyclohexyl]-6-{[2′-(5-oxo-4,5-dihydro-1,2,4-oxadiazol-3-yl)biphenyl-4-yl]methyl}-7-propyl[1,2,4]triazolo[1,5-a]pyrimidin-5(4H)-one]",2.2,42
"CCCc1c(Cc2ccc(-c3ccccc3-c3noc(=O)[nH]3)cc2)c(=O)n([C@H]2CC[C@@](C)(O)CC2)c2ncnn12 [Example 275, 4-(cis-4-hydroxy-4-methylcyclohexyl)-6-{[2′-(5-oxo-4,5-dihydro-1,2,4-oxadiazol-3-yl)biphenyl-4-yl]methyl}-7-propyl[1,2,4]triazolo[1,5-a]pyrimidin-5(4H)-one]",2.5,31
"CCCc1c(Cc2ccc(-c3ccccc3-c3noc(=O)[nH]3)cc2)c(=O)n([C@H]2CC[C@@H](Oc3ccc(C(C)=O)cc3)CC2)c2ncnn12 [Example 277, 4-[cis-4-(4-acetylphenoxy)cyclohexyl]-6-{[2′-(5-oxo-4,5-dihydro-1,2,4-oxadiazol-3-yl)biphenyl-4-yl]methyl}-7-propyl[1,2,4]triazolo[1,5-a]pyrimidin-5(4H)-one]",2.2,20
"CCCc1c(Cc2ccc(-c3ccccc3-c3noc(=O)[nH]3)cc2)c(=O)n([C@H]2CC[C@H](Oc3ccc(C(C)=O)cc3)CC2)c2ncnn12 [Example 278, 4-[trans-4-(4-acetylphenoxy)cyclohexyl]-6-{[2′-(5-oxo-4,5-dihydro-1,2,4-oxadiazol-3-yl)biphenyl-4-yl]methyl}-7-propyl[1,2,4]triazolo[1,5-a]pyrimidin-5(4H)-one]",2.7,22
"CCCc1c(Cc2ccc(-c3ccccc3-c3noc(=O)[nH]3)cc2)c(=O)n([C@H]2CC[C@H](Oc3ccc(C(C)(C)O)cc3)CC2)c2ncnn12 [Example 280, 4-{trans-4-[4-(1-hydroxy-1-methylethyl)phenoxy]cyclohexyl}-6-{[2′-(5-oxo-4,5-dihydro-1,2,4-oxadiazol-3-yl)biphenyl-4-yl]methyl}-7-propyl[1,2,4]triazolo[1,5-a]pyrimidin-5(4H)-one]",1.9,16
"CCCc1c(Cc2ccc(-c3ccccc3-c3noc(=O)[nH]3)cc2)c(=O)n([C@H]2CC[C@@H](Oc3ccon3)CC2)c2ncnn12 [Example 281, 4-[cis-4-(isoxazol-3-yloxy)cyclohexyl]-6-{[2′-(5-oxo-4,5-dihydro-1,2,4-oxadiazol-3-yl)biphenyl-4-yl]methyl}-7-propyl[1,2,4]triazolo[1,5-a]pyrimidin-5(4H)-one]",1.8,42
"CCCc1c(Cc2ccc(-c3ccccc3-c3noc(=O)[nH]3)cc2)c(=O)n([C@H]2CC[C@H](Oc3ccon3)CC2)c2ncnn12 [Example 282, 4-[trans-4-(isoxazol-3-yloxy)cyclohexyl]-6-{[2′-(5-oxo-4,5-dihydro-1,2,4-oxadiazol-3-yl)biphenyl-4-yl]methyl}-7-propyl[1,2,4]triazolo[1,5-a]pyrimidin-5(4H)-one]",2.2,53
"C=C1COC2(CCC(n3c(=O)c(Cc4ccc(-c5ccccc5-c5noc(=O)[nH]5)cc4)c(CCC)n4ncnc34)CC2)OC1 [Example 285, 4-(3-methylidene-1,5-dioxaspiro[5.5]undec-9-yl)-6-{[2′-(5-oxo-4,5-dihydro-1,2,4-oxadiazol-3-yl)biphenyl-4-yl]methyl}-7-propyl[1,2,4]triazolo[1,5-a]pyrimidin-5(4H)-one]",3.1,34
"CCCc1c(Cc2ccc(-c3ccccc3-c3noc(=O)[nH]3)cc2)c(=O)n(C2CCC3(CC2)OCCCO3)c2ncnn12 [Example 286, 4-(1,5-dioxaspiro[5.5]undec-9-yl)-6-{[2′-(5-oxo-4,5-dihydro-1,2,4-oxadiazol-3-yl)biphenyl-4-yl]methyl}-7-propyl[1,2,4]triazolo[1,5-a]pyrimidin-5(4H)-one]",3.1,39
"CCCc1c(Cc2ccc(-c3ccccc3-c3noc(=O)[nH]3)cc2)c(=O)n([C@H]2CC[C@@H](OCCO)CC2)c2nc(C)nn12 [Example 288, 4-[cis-4-(2-hydroxyethoxy)cyclohexyl]-2-methyl-6-{[2′-(5-oxo-4,5-dihydro-1,2,4-oxadiazol-3-yl)biphenyl-4-yl]methyl}-7-propyl[1,2,4]triazolo[1,5-a]pyrimidin-5(4H)-one]",2.7,17
"CCCc1c(Cc2ccc(-c3ccccc3-c3noc(=O)[nH]3)cc2)c(=O)n(C2CCC3(CC2)OC(=O)C(C)(C)O3)c2ncnn12 (stereo not shown) [Example 290, 4-(2,2-dimethyl-3-oxo-1,4-dioxaspiro[4.5]dec-8-yl)-6-{[2′-(5-oxo-4,5-dihydro-1,2,4-oxadiazol-3-yl)biphenyl-4-yl]methyl}-7-propyl[1,2,4]triazolo[1,5-a]pyrimidin-5(4H)-one]",3.2,25
